The text below walks through data of publication PMC6037002, “Drug targeting to decrease cardiotoxicity – determination of the cytotoxic effect of GnRH-based conjugates containing doxorubicin, daunorubicin and methotrexate on human cardiomyocytes and endothelial cells” (Beilstein Journal of Organic Chemistry, 2018).

In data set [1] the test system is primary human cardiac myocytes (HCM). The note with it: for delta slope (DS), short-term / delta slope (DS), long-term: HCM, three parallels; for delta slope (DS), short-term: 0–2 h; for delta slope (DS), long-term: 0–72 h; for cytotoxic effect on HCM, result in words: long-term (0–72 h), 10^−8–10^−6 mol/L (free drugs 10^−12–10^−6 mol/L), impedimetry, one-way ANOVA.

For data set [2] the following is noted: cited from earlier work. Here is the method: The GnRH derivatives were prepared by solid phase peptide synthesis (SPPS) according to Fmoc/t-Bu strategy (Supporting Information File 2). Three drug molecules, doxorubicin (Dox), daunorubicin (Dau) and methotrexate (Mtx), were employed in the preparation of drug conjugates. Dox has three potential conjugation sites; i) a primary OH group at C-14 on the aglycone part, which is suitable for ester bond formation, ii) an oxo group at C-13 is available for the generation of an oxime linkage and iii) the amino group on the daunosamine sugar moiety, which can be used for amide bond formation. The d ...

Data set [3] has as its system human umbilical vein endothelial cells (HUVEC). Kind of data set: Impedimetric measurement (xCELLigence SP), delta slope, HUVEC. The note with it: for delta slope (DS), short-term / delta slope (DS), long-term: HUVEC, three parallels; for delta slope (DS), short-term: 0–2 h; for delta slope (DS), long-term: 0–72 h; for Cardiotoxicity, HUVEC: grade +++/++/+/0, key not given, summary of impedimetric cytotoxicity; for cytotoxic effect on HUVEC, result in words: long-term (0–72 h), 10^−8–10^−6 mol/L, impedimetry, one-way ANOVA.

In data set [4] the test system is human acute monocytic leukemia (MonoMac6) cells. The note with it: cited from earlier work. From the text:
(§1) Table 1 Comparative study of cytotoxic effects and cardiotoxicity elicited by GnRH-based antitumor compounds (1–15) and reference substances (AN-152, Dox, Dau, Mtx). IC50 values show antitumor cytotoxic characteristics of the conjugates in human breast cancer (MCF-7), human colorectal adenocarcinoma (HT-29) and human acute monocytic leukemia (MM6) derived cell lines as representative tumor cells.

For data set [5], the system named is MCF-7 human breast adenocarcinoma cells. The conditions noted are these: MTT assay; cited from earlier work.
Description: as §1
(Formazan colour is commonly taken as a measure of viable cells.)

Data set [6] concerns HT-29 human colon adenocarcinoma cells. The conditions noted are these: MTT assay; cited from earlier work.
Description: as §1

By IC50 is commonly meant the concentration that inhibits the measured activity by half.

Where two headings read alike, the source gives them in different places.

Take “[^4N-MeSer]-GnRH-III(Dau=Aoa) [conjugate 6]”: the “delta slope (DS), short-term” value in data set [1] (Table S4b, 10^-6 mol/L) is recorded as 0.001; in data set [1] (Table S4b, 10^-7 mol/L), -0.001; in data set [1] (Table S4b, 10^-8 mol/L), -0.005; in data set [3] (Table S4a, 10^-6 mol/L) it was 0.006; in data set [3] (Table S4a, 10^-7 mol/L) it was 0.002; in data set [3] (Table S4a, 10^-8 mol/L), 0.011. Besides, the “delta slope (DS), long-term” value in data set [1] (Table S4b, 10^-6 mol/L) is 0.001; in data set [1] (Table S4b, 10^-7 mol/L), -0.002; in data set [1] (Table S4b, 10^-8 mol/L), -0.002; in data set [3] (Table S4a, 10^-6 mol/L), 0.001; in data set [3] (Table S4a, 10^-7 mol/L), -0.001; in data set [3] (Table S4a, 10^-8 mol/L), 0.001. For the same substance, in data set [1] (grade +++/++/+/0, key not given, summary of impedimetric cytotoxicity), the “Cardiotoxicity, HCM” value is 0. Also, the “cytotoxic effect on HCM, result in words” value in data set [1] is “completely lost their cytotoxic effect”. Also, the “enzymatic stability, result in words” value in data set [2] is “increased the enzymatic stability”. Besides, in data set [3], the “Cardiotoxicity, HUVEC” value stood at 0. Also, the “cytotoxic effect on HUVEC, result in words” value (“cytotoxic effect on HUVEC” below) in data set [3] is reported as “completely lost the cytotoxic effect”. The figures for the IC50 in data set [4] and in data set [5] were over 1 µM and 10.6 ± 2.1 µM, respectively.
Turning to “[^4Lys(Ac)]-GnRH-III(Dau=Aoa) [conjugate 5]”, the “delta slope (DS), short-term” value in data set [1] (Table S3b, 10^-6 mol/L) was -0.005; in data set [1] (Table S3b, 10^-7 mol/L) it was -0.001; in data set [1] (Table S3b, 10^-8 mol/L), -0.002; in data set [3] (Table S3a, 10^-6 mol/L), 0.002; in data set [3] (Table S3a, 10^-7 mol/L), 0.004; in data set [3] (Table S3a, 10^-8 mol/L) it was -0.001. The “delta slope (DS), long-term” value is recorded as −0.003 in data set [1] (Table S3b, 10^-6 mol/L); -0.001 in data set [1] (Table S3b, 10^-7 mol/L); 0.001 in data set [1] (Table S3b, 10^-8 mol/L); -0.001 in data set [3] (Table S3a, 10^-6 mol/L); -0.001 in data set [3] (Table S3a, 10^-7 mol/L); -0.001 in data set [3] (Table S3a, 10^-8 mol/L). The “enzymatic stability, result in words” value in data set [2] is listed as “increased the enzymatic stability”. Moreover, the “Cardiotoxicity, HUVEC” value in data set [3] was found to be 0. Further, in data set [3], the “cytotoxic effect on HUVEC” value is reported as “completely lost the cytotoxic effect”. Besides, the IC50 in data set [4] is 0.925 ± 0.07 µM; in data set [6], 7.4 ± 2.6 µM; in data set [5], 3.1 ± 1.7 µM.
As for “[^4Lys(Dau=Aoa)]-GnRH-III(Dau=Aoa) [conjugate 14]”, the “delta slope (DS), short-term” value in data set [1] (Table S3b, 10^-6 mol/L) is listed as -0.001; in data set [1] (Table S3b, 10^-7 mol/L) it was -0.002; in data set [1] (Table S3b, 10^-8 mol/L), 0.001; in data set [3] (Table S3a, 10^-6 mol/L), 0.006; in data set [3] (Table S3a, 10^-7 mol/L) it was -0.005; in data set [3] (Table S3a, 10^-8 mol/L) it was 0.002. For the same substance, the “delta slope (DS), long-term” value in data set [1] (Table S3b, 10^-6 mol/L) is reported as -0.002; in data set [1] (Table S3b, 10^-7 mol/L), -0.001; in data set [1] (Table S3b, 10^-8 mol/L), -0.0011; in data set [3] (Table S3a, 10^-6 mol/L) it was -0.001; in data set [3] (Table S3a, 10^-7 mol/L), -0.001; in data set [3] (Table S3a, 10^-8 mol/L) it was 0.001. Further, the “cytotoxic effect on HCM, result in words” value in data set [1] was “completely lost their cytotoxic effect”. In addition, the “Cardiotoxicity, HUVEC” value in data set [3] is recorded as 0. For the same substance, the “cytotoxic effect on HUVEC” value in data set [3] is “completely lost the cytotoxic effect”. In addition, the 50% inhibitory concentration (IC50) is 0.513 ± 0.04 µM in data set [4], 6.8 ± 1 µM in data set [6] and 2.9 ± 0.9 µM in data set [5].
Take GnRH-III(Dox-glut-GFLG) [conjugate 2]: the “delta slope (DS), short-term” value in data set [1] (Table S2b, 10^-6 mol/L) is 0.008; in data set [1] (Table S2b, 10^-7 mol/L) it was 0.003; in data set [1] (Table S2b, 10^-8 mol/L) it was 0.009; in data set [3] (Table S2a, 10^-6 mol/L), 0.058; in data set [3] (Table S2a, 10^-7 mol/L), 0.016; in data set [3] (Table S2a, 10^-8 mol/L) it was -0.004. In addition, the “delta slope (DS), long-term” value in data set [1] (Table S2b, 10^-6 mol/L) is given as −0.019; in data set [1] (Table S2b, 10^-7 mol/L), −0.004; in data set [1] (Table S2b, 10^-8 mol/L), 0.001; in data set [3] (Table S2a, 10^-6 mol/L, listed as 2), -0.042; in data set [3] (Table S2a, 10^-6 mol/L, listed as GnRH-III(Dox-glut-GFLG)), −0.042; in data set [3] (Table S2a, 10^-7 mol/L, listed as 2), -0.017. The “delta slope (DS), long-term” value in data set [3] (Table S2a, 10^-7 mol/L, listed as GnRH-III(Dox-glut-GFLG)) was −0.017; in data set [3] (Table S2a, 10^-8 mol/L), -0.002. The values for the half-maximal inhibitory concentration (IC50) in data set [4], in data set [6] and in data set [5] were 0.089 ± 0.02 µM, over 100 µM and over 100 µM, respectively.
For the substance GnRH-III(Dau=Aoa-GFLG) [conjugate 7], the “delta slope (DS), short-term” value in data set [1] (Table S4b, 10^-6 mol/L) is reported as 0.003; in data set [1] (Table S4b, 10^-7 mol/L) it was -0.001; in data set [1] (Table S4b, 10^-8 mol/L), -0.001; in data set [3] (Table S4a, 10^-6 mol/L) it was 0.003; in data set [3] (Table S4a, 10^-7 mol/L), -0.012; in data set [3] (Table S4a, 10^-8 mol/L), -0.002. The “delta slope (DS), long-term” value in data set [1] (Table S4b, 10^-6 mol/L) was -0.002; in data set [1] (Table S4b, 10^-7 mol/L), -0.002; in data set [1] (Table S4b, 10^-8 mol/L), 0.001; in data set [3] (Table S4a, 10^-6 mol/L) it was −0.013; in data set [3] (Table S4a, 10^-7 mol/L) it was 0.001; in data set [3] (Table S4a, 10^-8 mol/L) it was -0.001. Further, the “cytotoxic effect on HCM, result in words” value in data set [1] is on record as “completely lost their cytotoxic effect”. The half-maximal inhibitory concentration (IC50) in data set [4] was 0.894 ± 0.25 µM; in data set [6], 22.5 ± 1.7 µM; in data set [5], 3.9 ± 1.2 µM.
